The target in assay [1] is T1, PRMT1 (Homo sapiens, UniProt Q99873). As to the kind of experiment: PRMT1 RKO Cellular Target Engagement Assay (In-Cell Western, asymmetric di-methyl arginine). Format: cell-based. Particulars: RKO cells, 48 hr compound incubation; read-out: RKO IC50 (PRMT-1 Target Engagement). The procedure, abridged: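 RKO cells (1,000/well) received 1:3 serially diluted compound for 48 h at 37 °C, then were fixed, permeabilised and immunostained for asymmetric di-methyl arginine by In-Cell Western. The 800 nm antibody signal was normalised to CellTag 700 nm; IC50 from four-parameter logistic fit.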
T1 sequence (Q99873 whole entry): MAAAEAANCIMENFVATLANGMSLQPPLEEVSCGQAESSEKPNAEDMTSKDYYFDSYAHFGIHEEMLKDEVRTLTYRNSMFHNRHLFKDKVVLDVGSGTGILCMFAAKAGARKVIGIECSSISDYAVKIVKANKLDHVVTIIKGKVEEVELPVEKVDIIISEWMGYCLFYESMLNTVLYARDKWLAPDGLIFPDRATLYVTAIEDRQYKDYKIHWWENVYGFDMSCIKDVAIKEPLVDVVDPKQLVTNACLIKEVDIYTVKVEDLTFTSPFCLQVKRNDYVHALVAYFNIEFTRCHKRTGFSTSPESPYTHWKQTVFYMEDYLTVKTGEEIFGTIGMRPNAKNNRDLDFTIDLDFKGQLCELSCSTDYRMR

A further assay has as its system PATC53 cells. The assay is described as follows: PATC53 Long Term Phenotypic Assay (14 days, crystal violet viability). Format: cell-based. Particulars: 336 h. As for the experimental part:
PATC53 cells were derived from the PATC53 PDX model and kindly provided by Jason Fleming (MDACC). The cells were routinely maintained in DMEM/F12 Medium (Corning, Catalog #10-090-CV) supplemented with 10% fetal bovine serum (Sigma, Catalog #F2442), 100 units/mL penicillin and 100 μg/mL streptomycin (Gibco, Catalog #15140-122) in a humidified incubator (37° C., 5% CO2). Prior to the assay, cells were seeded onto a 12-well, TC treated plate (Corning, catalog #353043) at a density of 250 cells per well in a volume of 1 mL. The plate was incubated for 24 hours at 37° C. and 5% CO2. Stock solutions of the test compounds were prepared in 100% DMSO (Sigma, Catalog #D2650) and serially diluted 1:3 using 100% DMSO. Compounds were additionally diluted 1:100 in culture medium, and 110 μL/well was transferred to the tissue culture plate. Following the compound addition, the plate was incubated at 37° C. and 5% CO2 for 14 days. Viability was then assessed by crystal violet staining (Fisher Scientific, Catalog #C58125) as follows: 450 μL of crystal violet (1 mg/mL) was added to the plate for a 10 minute incubation at room temperature. After incubation, the plate was washed 3× with distilled water to remove excess dye and allowed to dry overnight. The crystal violet was solubilized using 10% HOAc (500 μL) for 10 minutes at room temperature, while shaking. A volume of 100 μL was then transferred to a 96-well SpectraPlate (Perkin Elmer, Catalog #6005649). Absorbance at 590 nm was measured with a BioTek Synergy Neo. IC50 values were calculated using a four-parameter logistic curve fit using Genedata Screener software.

The subject of the next assay is DOHH2 cells. The assay is described as follows: DOHH2 Long Term Phenotypic Assay (7 days, Cell Titer-Glo viability). It counts as cell-based. Particulars: Homo sapiens, DOHH-2, 168 h, Cell Titer-Glo 2.0. In short, it runs like this: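 DOHH2 lymphoma cells (250 per well) in RPMI-1640 with 10% FBS were exposed to 1:3 serially diluted compounds for 7 days at 37 °C, 5% CO2. Viability was read by CellTiter-Glo 2.0 luminescence, and IC50 values came from four-parameter logistic fits.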
In general terms: In ATP-based viability assays light output follows the ATP content of the culture.

For assay [2], the target named is T1, PRMT1. As to the kind of experiment: PRMT1 Enzymatic Assay (LANCE TR-FRET, methylation of histone H4 at Arg3). It counts as biochemical. The arrangement: purchased SignalChem P365-380G. Particulars: PRMT1 1.5 nM, SAM 1 μM, biotinylated histone H4 (1-21) 25 nM; read-out: PRMT-1 IC50. The procedure, abridged: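 PRMT1 (1.5 nM) preincubated 15 min with compound at room temperature, then reacted 1 h with 1 μM SAM and 25 nM biotinylated histone H4 (1-21) in 50 mM Hepes pH 8, 1 mM TCEP, 0.003% Tween-20. H4R3me detected by TR-FRET (665/620 nm ratio); IC50 from four-parameter logistic fit.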
(In general: TR-FRET usually uses a lanthanide donor and a delayed reading to cut background.)

For orientation: IC50 means the concentration that gives 50% inhibition.

Consider `CNCCN(C)Cc1nn2c(c1C1CCC(COC)(COC)CC1)CN(C(=O)C(C)C)CC2` [Example 24, 1-(3-(4,4-bis(methoxy-methyl)cyclohexyl)-2-((methyl(2-(methylamino)-ethyl)amino)methyl)-6,7-dihydropyrazolo[1,5-a]-pyrazin-5(4H)-yl)-2-methylpropan-1-one], for which the IC50 on PRMT1 [1] turned out to be 254 nM; in the assay on PATC53 cells, 69 nM; in the assay with DOHH2 cells it was 103 nM; at PRMT1 [2], 76 nM.

In the case of `CNCCN(C)Cc1nn2c(c1C1CCC(COC)(COC)CC1)CN(C(=O)C13CC(OC)(C1)C3)CC2` [Example 25, (3-(4,4-bis(methoxymethyl)-cyclohexyl)-2-((methyl(2-(methylamino)ethyl)amino)-methyl)-6,7-dihydropyrazolo-[1,5-a]pyrazin-5(4H)-yl)(3-methoxybicyclo[1.1.1]pentan-1-yl)methanone], the IC50 at PRMT1 [1] is 419 nM; in the assay with PATC53 cells it was 203 nM; with DOHH2 cells, 150 nM; at PRMT1 [2], 82 nM.

As for `CNCCN(C)Cc1nn2c(c1C1CCC(COC)(COC)CC1)CN(C(=O)CC1CC1)CC2` [Example 27, 1-(3-(4,4-bis(methoxy-methyl)cyclohexyl)-2-((methyl(2-(methylamino)-ethyl)amino)methyl)-6,7-dihydropyrazolo[1,5-a]-pyrazin-5(4H)-yl)-2-cyclopropylethan-1-one], the IC50 is 318 nM at PRMT1 [1], 115 nM in the assay with PATC53 cells, 79 nM in the assay on DOHH2 cells and 59 nM on PRMT1 [2].

For `CNCCN(C)Cc1nn2c(c1C1CCC(COC)(COC)CC1)CN(C(=O)C1(OC)CCC1)CC2` [Example 28, (3-(4,4-bis(methoxymethyl)-cyclohexyl)-2-((methyl(2-(methylamino)ethyl)amino)-methyl)-6,7-dihydropyrazolo-[1,5-a]pyrazin-5(4H)-yl)(1-methoxycyclobutyl)-methanone], the IC50 at PRMT1 [1] is 907 nM; in the assay with PATC53 cells, 435 nM; in the assay with DOHH2 cells it was 207 nM; on PRMT1 [2], 139 nM.

Consider `CNCCN(C)Cc1nn2c(c1C1CCC(COC)(COC)CC1)CN(C(=O)C1CCC(F)(F)CC1)CC2` [Example 29, (3-(4,4-bis(methoxymethyl)-cyclohexyl)-2-((methyl(2-(methylamino)ethyl)amino)-methyl)-6,7-dihydropyrazolo-[1,5-a]pyrazin-5(4H)-yl)(4,4-difluorocyclohexyl)-methanone], for which the IC50 was determined as 271 nM at PRMT1 [1], 84 nM in the assay on PATC53 cells, 99 nM in the assay with DOHH2 cells and 65 nM at PRMT1 [2].

As for `CNCCN(C)Cc1nn2c(c1C1CCC(COC)(COC)CC1)CN(C(=O)COC)CC2` [Example 30, 1-(3-(4,4-bis(methoxy-methyl)cyclohexyl)-2-((methyl(2-(methylamino)-ethyl)amino)methyl)-6,7-dihydropyrazolo[1,5-a]-pyrazin-5(4H)-yl)-2-methoxyethan-1-one], the 50% inhibitory concentration (IC50) on PRMT1 [1] was determined as 795 nM; in the assay on PATC53 cells, 795 nM; with DOHH2 cells it was 159 nM; on PRMT1 [2], 81 nM.

On to `CNCCN(C)Cc1nn2c(c1C1CCC(COC)(COC)CC1)CN(C(=O)C1CCCO1)CC2` (stereo not shown) [Example 32, (3-(4,4-bis(methoxymethyl)-cyclohexyl)-2-((methyl(2-(methylamino)ethyl)amino)-methyl)-6,7-dihydropyrazolo-[1,5-a]pyrazin-5(4H)-yl)-(tetrahydrofuran-2-yl)-methanone], for which the IC50 on PRMT1 [1] is 293 nM; in the assay on PATC53 cells, 163 nM; in the assay on DOHH2 cells, 160 nM; at PRMT1 [2], 46 nM.

With `CNCCN(C)Cc1nn2c(c1C1CCC(COC)(COC)CC1)CN(C(=O)C1CCCC1)CC2` [Example 33, (3-(4,4-bis(methoxymethyl)-cyclohexyl)-2-((methyl(2-(methylamino)ethyl)amino)-methyl)-6,7-dihydropyrazolo-[1,5-a]pyrazin-5(4H)-yl)-(cyclopentyl)methanone], the IC50 on PRMT1 [1] amounted to 120 nM; in the assay with PATC53 cells, 55 nM; in the assay on DOHH2 cells it was 83 nM; on PRMT1 [2], 55 nM.

In the case of `CNCCN(C)Cc1nn2c(c1C1CCC(COC)(COC)CC1)CN(C(=O)C1CCOC1)CC2` (stereo not shown) [Example 35, (3-(4,4-bis(methoxymethyl)-cyclohexyl)-2-((methyl(2-(methylamino)ethyl)amino)-methyl)-6,7-dihydropyrazolo-[1,5-a]pyrazin-5(4H)-yl)-(tetrahydrofuran-3-yl)-methanone], the IC50 at PRMT1 [1] turned out to be 818 nM; in the assay on PATC53 cells it was 655 nM; in the assay on DOHH2 cells it was 212 nM; at PRMT1 [2], 62 nM.

In the case of `CNCCN(C)Cc1nn2c(c1C1CCC(COC)(COC)CC1)CN(C(=O)C(C)(F)F)CC2` [Example 36, 1-(3-(4,4-bis(methoxy-methyl)cyclohexyl)-2-((methyl(2-(methylamino)-ethyl)amino)methyl)-6,7-dihydropyrazolo[1,5-a]-pyrazin-5(4H)-yl)-2,2-difluoropropan-1-one], the IC50 at PRMT1 [1] is 269 nM; with PATC53 cells it was 246 nM; in the assay on DOHH2 cells, 190 nM; at PRMT1 [2] it was 50 nM.

Consider `CNCCN(C)Cc1nn2c(c1C1CCC(COC)(COC)CC1)CN(C(=O)C(C)(C)C#N)CC2` [Example 37, 3-(3-(4,4-bis(methoxy-methyl)cyclohexyl)-2-((methyl(2-(methylamino)-ethyl)amino)methyl)-6,7-dihydropyrazolo[1,5-a]-pyrazin-5(4H)-yl)-2,2-dimethyl-3-oxopropanenitrile], for which the IC50 stood at 237 nM on PRMT1 [1], 171 nM in the assay on PATC53 cells, 142 nM with DOHH2 cells and 90 nM on PRMT1 [2].

In the case of `CNCCN(C)Cc1nn2c(c1C1CCC(COC)(COC)CC1)CN(C(=O)C(C)C#N)CC2` (stereo not shown) [Example 38, 3-(3-(4,4-bis(methoxy-methyl)cyclohexyl)-2-((methyl(2-(methylamino)-ethyl)amino)methyl)-6,7-dihydropyrazolo[1,5-a]-pyrazin-5(4H)-yl)-2-methyl-3-oxopropanenitrile], the IC50 on PRMT1 [1] turned out to be 690 nM; with PATC53 cells it was 580 nM; in the assay with DOHH2 cells, 83 nM; at PRMT1 [2] it was 103 nM.

For `CNCCN(C)Cc1nn2c(c1C1CCC(COC)(COC)CC1)CN(C(=O)C1CC(C)(C)C1)CC2` [Example 39, (3-(4,4-bis(methoxymethyl)-cyclohexyl)-2-((methyl(2-(methylamino)ethyl)amino)-methyl)-6,7-dihydropyrazolo-[1,5-a]pyrazin-5(4H)-yl)(3,3-dimethylcyclobutyl)-methanone], the half-inhibitory concentration (IC50) on PRMT1 [1] came out at 177 nM; with PATC53 cells, 49 nM; in the assay with DOHH2 cells it was 108 nM; on PRMT1 [2], 79 nM.

Regarding `COCC1(COC)CCC(c2c(CN(C)CCN)nn3c2CN(C(=O)C2CC(F)(F)C2)CC3)CC1` [Example 40, (2-(((2-aminoethyl)(methyl)-amino)methyl)-3-(4,4-bis-(methoxymethyl)cyclohexyl)-6,7-dihydropyrazolo[1,5-a]-pyrazin-5(4H)-yl)(3,3-difluorocyclobutyl)-methanone], the IC50 at PRMT1 [1] worked out at 1520 nM; with PATC53 cells it was 304 nM; with DOHH2 cells it was 249 nM; at PRMT1 [2], 54 nM.

Regarding `CNCCN(C)Cc1nn2c(c1C1CCC(COC)(COC)CC1)CN(C(=O)C1(C#N)CCC1)CC2` [Example 41, 1-(3-(4,4-bis(methoxy-methyl)cyclohexyl)-2-((methyl(2-(methylamino)-ethyl)amino)methyl)-4,5,6,7-tetrahydropyrazolo[1,5-a]-pyrazine-5-carbonyl)cyclobutane-1-carbonitrile], the IC50 amounted to 180 nM at PRMT1 [1], 175 nM in the assay with PATC53 cells, 91 nM in the assay with DOHH2 cells and 72 nM on PRMT1 [2].

Turning to `COCC1(COC)CCC(c2c(CN(C)CCN)nn3c2CN(C(=O)C2CCCC2)CC3)CC1` [Example 42, (2-(((2-aminoethyl)(methyl)-amino)methyl)-3-(4,4-bis-(methoxymethyl)cyclohexyl)-6,7-dihydropyrazolo[1,5-a]-pyrazin-5(4H)-yl)-(cyclopentyl)methanone], the IC50 at PRMT1 [1] came to 431 nM; in the assay with PATC53 cells it was 136 nM; in the assay on DOHH2 cells, 180 nM; on PRMT1 [2], 29 nM.

Values taken from patent US20230416261A1, “ETHANEDIAMINE-HETEROCYCLE DERIVATIVES AS INHIBITORS OF PROTEIN ARGININE METHYLTRANSFERASES” (Board of Regents, The University of Texas System, priority 2021, published 2023).
